Patent US7169604B1, “Method for PR-39 peptide mediated selective inhibition of IκBα degradation” (Beth Israel Deaconess Medical Center, priority 1998, dated 2007)
Ends that are not written are not given here.

Legend:
IκBα-VCP = target: T1, IκBα-VCP (Homo sapiens, UniProt P25963+P55072); test: IκBα-VCP binding (IκBα immunoprecipitation, anti-VCP Western blot) in ECV304 cells; format: cell-based; conditions: wild type ECV304 cells, 10 μM pretreatment, TNF-α 1 ng/ml
T1 construct: endogenous in cells; host or cells: wild type ECV304
Source text: Wild type ECV304 cells (treated as described in FIG. 4C) were subjected to immunoprecipitation with anti-IκBα antibody (IκBα-IP) followed by Western blotting with anti-VCP-3 antibody (1:3000, dilution; a kind gift of Dr. C. C. Li (NIH)). Note the presence of 90 kD VCP band in the presence or absence of PR-39 treatment.
Pretreatment with PR-39 increased the amount of VCP in the IκBα immunoprecipitate (FIG. 4D) as would be expected given the increased amount of ubiquitinated forms of IκBα in the PR-39-treated cells.

IκBα [1] = test: IκBα phosphorylation in U937 cell culture; format: cell-based, human; conditions: U937 cells, 10 μM pretreatment, TNFα 1 ng/ml, 45 min
Method: To explore potential mechanisms of this selective inhibition, the effect of peptide administration on IκBα phosphorylation and ubiquitination was studied. It is known that TNF-α treatment leads to phosphorylation of IκBα, which is required for its subsequent ubiquitination. The result is indicated by FIG. 4A.
U937 cells cultured in the absence (−) or presence (+) of pretreatment with 10 μM PR-39 were exposed to 1 ng/ml TNFα. 45 min later the cells were lysed and subjected to SDS-PAGE and Western blotting with anti-IκBα antibody. Note the increased amount of the typical-appearing phosphorylated IκKBα band in PR-39 treated cells.

IκBα [2] = test: TNF-α induced degradation of IκBα in U937 cells; format: cell-based, human; conditions: 45 min pretreatment with 100 nM, TNF-α 1 ng/ml, 10 min
Method: Tumor necrosis factor (TNF)-α is known to induce rapid degradation of IκBα by the Ub-proteasome pathway.
As shown by FIG. 1E, PR-39 prevents TNF-a induced degradation of IκBα. U937 cells were cultured in 10% FBs-RPMI medium in the absence (−) or presence of TNF-a (1 ng/ml). 10 min following TNF-α addition, the cells were washed and IκBα protein levels assessed by Western blotting.
Note that a […] 45 min of pretreatment with 100 nM of PR-39 or 10 μM of MG132 or lactacystin (LC) prior to addition of blocked TNF-α, blocked cytokine-induced degradation of IκBα expression.

20S proteasome = target: T2, 20S proteasome (Homo sapiens, UniProt P25788); test: Co-immunoprecipitation of PR-39 and 20S subunits in ECV cells; format: binding; conditions: ECV304 cells transfected with PR-39 constructs; anti-PR-39 antibody
T2 construct: endogenous in cells; host or cells: ECV304 cells stably expressing porcine PR-39 constructs
Source text: In order to confirm that PR-39 and the a7 subunit interact in cells, a polyclonal anti-PR-39 antibody was used to immunoprecipitate PR-39 protein from EVC304 cells transfected with cDNA constructs corresponding either to the full length (EVC-PR-39) or exon 4 (39 amino acid C-terminal domain) (ECV-E4) of the porcine PR-39 gene.
Full-length porcine cDNA (containing the leader sequence) and a cDNA construct corresponding to the 4th exon of porcine PR-39 gene were cloned into eukaryotic expression vector pGRE5-2 (USB) and used to stably transfect an immortalized human endothelial cell line (ECV304, ATCC). For co-immunoprecipitation, wild type ECV, full-length PR-39 (ECV-PR-39) and exon 4 PR-39 (ECV-E4) transfected cells were cultured in 10% FBS-M199. Cells were lysed with the RIPA buffer, and equal amounts of total protein were pre-cleared with non-immune rabbit serum and protein G plus/protein A-agarose beads (Calbiochem). The cleared samples were incubated at 4° C. overnight with 20 μl of polyclonal anti-PR-39 antibody and 40 μl of protein G plus/protein A-agarose beads or with the beads alone. […]

[3] = Infarct size in mice, ischemia-reperfusion injury; format: in vivo; conditions: infusion prior to restoration of flow
Source text: • a. Inhibition of ischemia-reperfusion injury. Restoration of blood flow to the myocardium in the setting of acute myocardial infarction leads to further damage to ischemic but still live heart muscle due to an influx of inflammatory blood cells that is mediated by NFκB-activated expression of endothelial adhesion molecules ICAM-1 and VCAM-1. Infusion of PR39 prior to restoration of flow blocks this effect due to inhibition of NFκB activity and effectively protects from further myocardial injury. […] Inhibition of chemical pancreatitis. Tissue injury in the pancreas due to chemical or hormonal injury is one of the more common causes of acute pancreatitis. This is largely mediated by NFκB. Pre-treatment with PR39 blocks this injury. • c. PR39 will block any other injury activated NFκB-dependent gene transcription and thus can be used to block the development of skin wounds, ulcers (stomach, duodenum), etc.

T1 sequence (P25963 whole entry): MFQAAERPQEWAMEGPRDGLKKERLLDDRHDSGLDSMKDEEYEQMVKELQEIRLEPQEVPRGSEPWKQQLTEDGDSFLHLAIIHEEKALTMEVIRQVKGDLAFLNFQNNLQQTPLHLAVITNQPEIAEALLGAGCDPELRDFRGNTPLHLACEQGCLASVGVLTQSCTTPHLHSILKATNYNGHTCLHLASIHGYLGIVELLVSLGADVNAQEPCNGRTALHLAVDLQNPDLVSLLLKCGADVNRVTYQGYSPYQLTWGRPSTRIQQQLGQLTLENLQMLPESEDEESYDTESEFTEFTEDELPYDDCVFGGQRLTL
T1 sequence (P55072 2-806 limits assumed): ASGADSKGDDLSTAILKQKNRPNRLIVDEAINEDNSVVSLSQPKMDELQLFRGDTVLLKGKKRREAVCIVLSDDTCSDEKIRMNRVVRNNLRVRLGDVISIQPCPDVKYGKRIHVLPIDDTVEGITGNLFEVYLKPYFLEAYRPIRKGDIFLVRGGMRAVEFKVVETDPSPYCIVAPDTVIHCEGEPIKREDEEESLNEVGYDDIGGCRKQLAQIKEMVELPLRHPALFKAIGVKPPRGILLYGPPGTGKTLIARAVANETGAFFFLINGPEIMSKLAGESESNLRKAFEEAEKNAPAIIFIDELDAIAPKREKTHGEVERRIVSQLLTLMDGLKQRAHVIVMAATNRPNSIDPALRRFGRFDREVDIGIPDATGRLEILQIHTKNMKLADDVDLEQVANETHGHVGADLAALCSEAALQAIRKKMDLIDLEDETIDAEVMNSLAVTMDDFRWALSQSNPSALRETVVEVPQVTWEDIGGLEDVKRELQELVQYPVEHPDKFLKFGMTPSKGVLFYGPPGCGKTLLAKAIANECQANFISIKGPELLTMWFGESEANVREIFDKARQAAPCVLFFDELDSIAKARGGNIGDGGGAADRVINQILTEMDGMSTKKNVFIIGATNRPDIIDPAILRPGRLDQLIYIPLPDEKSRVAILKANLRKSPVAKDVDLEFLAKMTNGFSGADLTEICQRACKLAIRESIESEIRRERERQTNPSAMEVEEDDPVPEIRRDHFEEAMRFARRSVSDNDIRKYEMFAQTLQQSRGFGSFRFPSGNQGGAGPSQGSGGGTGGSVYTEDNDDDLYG

Sequence: RRRPRPPYLPRPRPPPFFPPRLPPRIPPGFPPRFPPRFP [PR-39]
- IκBα-VCP binding (IκBα-VCP): does not inhibit IκBα-VCP binding
- amount of phosphorylated IκBα (IκBα [1]): increased the amount of the phosphorylated form of IκBα
- TNF-α caused decline of the level of IκBα (IκBα [2]): markedly reduced
- binding to 20S proteasome (co-immunoprecipitation of α7 and α2 subunits) (20S proteasome): can bind to the 20S proteasome particle via an interaction with the a7 subunit
- reduction of infarct size [3]: 60%
